The values that follow come from PubChem BioAssay (NCI).

Among the test systems are SNB-19 CNS; HOP-92 NSCLC; OVCAR-3 ovarian; A498 renal; HCT-15 colon; SK-MEL-28 melanoma; NCI-H460 lung; SF-295 CNS; LOX IMVI melanoma; SR leukemia.
What all share (experiment): NCI tumour cell line growth inhibition, 48 h

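Exposure lasted 48 hours, with cells grown in 96-well plates and compounds tested at five concentrations. GI50 marks 50% less growth. TGI: concentration producing complete growth inhibition.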 Bounds are passed on as bounds.

With `CCCCCCCCSC1=CC(=O)c2nc3ccccc3c3ccnc1c23`, the GI50 in the assay on SNB-19 CNS was above 100 µM; in the assay on HOP-92 NSCLC, 80 µM; in the assay with OVCAR-3 ovarian it was 19 µM; with A498 renal, above 100 µM; in the assay on HCT-15 colon it was 38.4 µM; with SK-MEL-28 melanoma it was 42.7 µM. For the same compound, the GI50 in the assay with NCI-H460 lung was 26.3 µM; with SF-295 CNS, above 100 µM; with LOX IMVI melanoma it was above 100 µM; with SR leukemia, 22.7 µM. In addition, the TGI in the assay on SNB-19 CNS, in the assay on HOP-92 NSCLC, with OVCAR-3 ovarian, in the assay on A498 renal, in the assay with HCT-15 colon and in the assay on SK-MEL-28 melanoma was above 100 µM in each case. Also, the TGI in the assay with NCI-H460 lung, in the assay on SF-295 CNS, in the assay with LOX IMVI melanoma and in the assay on SR leukemia was above 100 µM in each case.

With `O=C(O)c1cc(C(=O)O)cc(N2C(=O)c3ccccc3C2=O)c1`, the TGI with SNB-19 CNS, in the assay on HOP-92 NSCLC, with OVCAR-3 ovarian, in the assay on A498 renal, in the assay with HCT-15 colon and in the assay on SK-MEL-28 melanoma was above 100 µM throughout. The TGI in the assay with NCI-H460 lung, in the assay with SF-295 CNS, in the assay with LOX IMVI melanoma and in the assay with SR leukemia was above 100 µM in each case.

Consider `CSc1ccc(/C=C2\CN(C)C/C(=C\c3ccc(SC)cc3)C2=O)cc1`, for which the TGI was above 100 µM in the assay with HOP-92 NSCLC; 56 µM in the assay with OVCAR-3 ovarian; above 100 µM with A498 renal; above 100 µM in the assay on HCT-15 colon; above 100 µM in the assay with SK-MEL-28 melanoma; above 100 µM in the assay on NCI-H460 lung. Also, the TGI in the assay with SF-295 CNS was above 100 µM; in the assay on LOX IMVI melanoma, 22.6 µM; in the assay with SR leukemia, 41.4 µM.

Regarding `CNC(=O)c1cc(Oc2ccc3nc(NC(=O)Nc4ccc(Cl)c(C(F)(F)F)c4)sc3c2)ccn1`, the GI50 is 2.77 µM in the assay with SNB-19 CNS; 1.15 µM with HOP-92 NSCLC; 2.49 µM with A498 renal; 1.79 µM in the assay with SF-295 CNS; 2.68 µM in the assay with LOX IMVI melanoma; 0.412 µM in the assay on SR leukemia. The TGI with SNB-19 CNS is 10.2 µM; in the assay with HOP-92 NSCLC, 3.24 µM; with A498 renal, 12.2 µM; in the assay with SF-295 CNS, 3.71 µM; in the assay on LOX IMVI melanoma it was above 100 µM; in the assay on SR leukemia it was 9.1 µM.

As for `O=C(CCl)N1c2ccccc2Oc2ccc3ccccc3c21`, the GI50 was 1.86 µM in the assay with SNB-19 CNS; 1.59 µM in the assay with HOP-92 NSCLC; 1.23 µM in the assay with OVCAR-3 ovarian; 2.44 µM in the assay with A498 renal; 1.83 µM in the assay with SK-MEL-28 melanoma; 2 µM in the assay on NCI-H460 lung. Besides, the GI50 with SF-295 CNS was 2.41 µM; in the assay on LOX IMVI melanoma, 0.347 µM; in the assay on SR leukemia, 0.305 µM. Also, the TGI in the assay with SNB-19 CNS is 3.44 µM; in the assay with HOP-92 NSCLC it was 3.31 µM; in the assay on OVCAR-3 ovarian, 2.64 µM; in the assay on A498 renal it was 6.97 µM; in the assay with SK-MEL-28 melanoma, 3.34 µM; in the assay with NCI-H460 lung, 4.11 µM. Moreover, the values for the TGI in the assay with SF-295 CNS, in the assay with LOX IMVI melanoma and in the assay with SR leukemia were 5.92 µM, 1.41 µM and 1.06 µM, respectively.

On to `O=C(O)CCSC(=O)Nc1cccc(F)c1`, for which the TGI in the assay with SNB-19 CNS, in the assay with OVCAR-3 ovarian, with A498 renal, in the assay on HCT-15 colon, in the assay with SK-MEL-28 melanoma and with NCI-H460 lung was above 100 µM each time. Also, the TGI with SF-295 CNS, in the assay with LOX IMVI melanoma and in the assay on SR leukemia was above 100 µM each time.

As for `COc1ccc(C2=CSc3cc(Cl)c(C)cc3S(=O)(=O)N2C(C)=O)cc1`, the GI50 is 36.3 µM in the assay on SNB-19 CNS; 21.9 µM with HOP-92 NSCLC; 15.8 µM with OVCAR-3 ovarian; 59.5 µM in the assay on A498 renal; 24.6 µM in the assay on HCT-15 colon; 56 µM with SK-MEL-28 melanoma. The GI50 with NCI-H460 lung was 29 µM; in the assay on LOX IMVI melanoma, 21 µM; with SR leukemia it was 14.6 µM. The TGI is above 100 µM in the assay with SNB-19 CNS; above 100 µM with HOP-92 NSCLC; 41.4 µM with OVCAR-3 ovarian; above 100 µM in the assay with A498 renal; 88.5 µM with HCT-15 colon; above 100 µM in the assay with SK-MEL-28 melanoma. For the same compound, the TGI with NCI-H460 lung is 99.5 µM; with LOX IMVI melanoma, above 100 µM; with SR leukemia it was above 100 µM.

As for `Cc1cnc(NC(=O)C(Cc2ccccc2)NC(=O)c2ccccc2)s1` (stereo not given), the GI50 with SNB-19 CNS is 19 µM; with HOP-92 NSCLC, 29.9 µM; in the assay on OVCAR-3 ovarian, 11.3 µM; with A498 renal, 31.1 µM; with HCT-15 colon it was 2.63 µM; with SK-MEL-28 melanoma, 19.8 µM. Besides, the GI50 was 3.54 µM in the assay with NCI-H460 lung, 6.25 µM with LOX IMVI melanoma and 2.78 µM with SR leukemia. In addition, the TGI in the assay with SNB-19 CNS was 48.6 µM; in the assay with HOP-92 NSCLC, above 100 µM; in the assay with OVCAR-3 ovarian it was 25.8 µM; in the assay on A498 renal it was above 100 µM; in the assay with HCT-15 colon, 8.9 µM; in the assay with SK-MEL-28 melanoma, 49.9 µM. Besides, the TGI in the assay on NCI-H460 lung was found to be 13.8 µM; in the assay with LOX IMVI melanoma, 19.3 µM; in the assay with SR leukemia, 26.6 µM.

Consider `O=C1NC2(CCCCC2)C2CCCCC(O)C12` (stereo not given), for which the TGI with SNB-19 CNS, with OVCAR-3 ovarian, with A498 renal, in the assay with HCT-15 colon, with SK-MEL-28 melanoma and in the assay on NCI-H460 lung was above 100 µM each time. The TGI in the assay on SF-295 CNS and in the assay with SR leukemia was above 100 µM in each case.

Regarding `COc1ccc2c(c1)C(=O)/C(=C/c1ccc(OCC(=O)Nc3nccs3)cc1)O2`, the GI50 in the assay with SNB-19 CNS was 20.4 µM; with HOP-92 NSCLC it was 0.161 µM; in the assay on OVCAR-3 ovarian it was 0.204 µM; in the assay on A498 renal it was 7.99 µM; in the assay on HCT-15 colon, 4.51 µM; in the assay with SK-MEL-28 melanoma it was 12.7 µM. Moreover, the GI50 was 15.5 µM with NCI-H460 lung, 0.057 µM in the assay on LOX IMVI melanoma and 0.27 µM with SR leukemia. Also, the TGI was above 65.7 µM in the assay on SNB-19 CNS; 0.369 µM with HOP-92 NSCLC; 0.398 µM with OVCAR-3 ovarian; 26.2 µM in the assay on A498 renal; 17.8 µM in the assay with HCT-15 colon; 26.3 µM in the assay on SK-MEL-28 melanoma. The TGI in the assay with NCI-H460 lung is 34.4 µM; in the assay with LOX IMVI melanoma, 0.108 µM; in the assay on SR leukemia, 1.15 µM.

Regarding `CC1=C(C(=O)Nc2ccccc2C)C(c2ccco2)C(C(=O)Nc2ccccc2C)=C(C)N1C`, the TGI in the assay with SNB-19 CNS, with HOP-92 NSCLC, with OVCAR-3 ovarian, with SK-MEL-28 melanoma, in the assay with NCI-H460 lung and in the assay with SF-295 CNS was above 100 µM each time. Besides, the TGI in the assay on LOX IMVI melanoma and in the assay with SR leukemia was above 100 µM each time.

`Fc1ccc(Nc2ncnc3ccc(-c4cnc5[nH]ccc5c4)cc23)cc1Cl`: the GI50 in the assay on SNB-19 CNS is 1.94 µM; in the assay on HOP-92 NSCLC, 1.68 µM; in the assay with OVCAR-3 ovarian, 1.51 µM; with HCT-15 colon it was 3.24 µM; in the assay on SK-MEL-28 melanoma, 4.13 µM; in the assay on NCI-H460 lung, 1.83 µM. The GI50 in the assay on SF-295 CNS was 2.73 µM; with LOX IMVI melanoma it was 3.95 µM; in the assay on SR leukemia, 2.68 µM. Moreover, the TGI in the assay with SNB-19 CNS is 5.94 µM; with HOP-92 NSCLC, 5.49 µM; in the assay on OVCAR-3 ovarian it was 3.73 µM; with HCT-15 colon, above 76.5 µM; in the assay on SK-MEL-28 melanoma it was above 36.2 µM; in the assay on NCI-H460 lung, 4.06 µM. For the same compound, the TGI in the assay on SF-295 CNS is 11.2 µM; in the assay with LOX IMVI melanoma, above 29.4 µM; with SR leukemia, above 100 µM.

As to `N#CC(C#N)=c1ccc(=C2NCC3CCCN23)cc1` (stereo not given), the TGI in the assay on SNB-19 CNS, in the assay on HOP-92 NSCLC, in the assay with A498 renal, in the assay on HCT-15 colon, in the assay on NCI-H460 lung and with SF-295 CNS was above 100 µM each time. In addition, the TGI with LOX IMVI melanoma and in the assay with SR leukemia was above 100 µM each time.

As for `COc1cccc(NC(=O)CC(=O)n2nc(C)c(N=Nc3ccccc3)c2C)c1`, the TGI in the assay with SNB-19 CNS, in the assay on HOP-92 NSCLC, with OVCAR-3 ovarian, with A498 renal, in the assay on SK-MEL-28 melanoma and in the assay with SF-295 CNS was above 100 µM throughout. Also, the TGI with LOX IMVI melanoma and in the assay on SR leukemia was above 100 µM each time.

With `COc1ccc(-n2/c(=N/C(=S)N(C)C)ss/c2=N\C(=S)N(C)C)cc1`, the TGI in the assay on SNB-19 CNS is 45.5 µM; in the assay with OVCAR-3 ovarian it was 53.1 µM; in the assay on A498 renal it was above 100 µM; in the assay on HCT-15 colon, above 100 µM; with SK-MEL-28 melanoma, above 100 µM; in the assay on NCI-H460 lung it was 11.2 µM. Moreover, the TGI in the assay on SF-295 CNS, with LOX IMVI melanoma and in the assay on SR leukemia was above 100 µM throughout.

On to `O=C(CSC(=S)N1CCCCC1)Nc1nc2c(s1)CCCC2`, for which the TGI was above 100 µM in the assay with SNB-19 CNS; 94.3 µM in the assay on HOP-92 NSCLC; above 100 µM with A498 renal; above 100 µM in the assay on HCT-15 colon; above 100 µM with SK-MEL-28 melanoma; above 100 µM in the assay with NCI-H460 lung. The TGI in the assay on SF-295 CNS is 79.3 µM; with LOX IMVI melanoma it was 40.6 µM; in the assay on SR leukemia it was above 100 µM.
